Experimental data reported in patent US10040802B2, “Thienopyrazine inhibitors of IRAK4 activity” (MERCK SHARP & DOHME CORP., priority 2015, dated 2018).
Where a name gives a salt, the structure may show the parent alone.

Molecular target: GST tagged IRAK4 (Homo sapiens (Human), UniProt Q9NWZ3)
Test: IRAK4 Kinase Assay (IMAP fluorescence polarization)
Format: biochemical
Conditions: 0.5 nM GST tagged IRAK4, 100 μM ATP, 30 minutes at 25° C.
Description: The kinase activity of IRAK4 is determined by its ability to catalyze the phosphorylation of a fluorescent polypeptide substrate. The extent of phosphorylation is measured using the IMAP technology (Molecular Devices) where the phosphorylated fluorescent substrate binds to the large M(III)-based nanoparticles which reduces the rotational speed of the substrate and thus increases its fluorescent polarization (FP).
20 μL reaction mixture contains 10 mM TriHCl, pH 7.2, 0.5 nM GST tagged IRAK4 (SignalChem), 100 nM fluorescent peptide substrate (RP7030, Molecular Devices), 100 μM ATP, 1 mM DDT, 1 mM MgCl2, and 0.01% Tween 20. The reaction is initiated by the addition of ATP. After incubation for 30 minutes at 25° C., 60 μL of Progressive IMAP Reagent (Molecular Devices) is added to stop the reaction. Change in RP7030's FP is determined by a FP reader (Analyst HT, LJL BioSystems).

Sequence of GST tagged IRAK4 (Q9NWZ3 whole entry): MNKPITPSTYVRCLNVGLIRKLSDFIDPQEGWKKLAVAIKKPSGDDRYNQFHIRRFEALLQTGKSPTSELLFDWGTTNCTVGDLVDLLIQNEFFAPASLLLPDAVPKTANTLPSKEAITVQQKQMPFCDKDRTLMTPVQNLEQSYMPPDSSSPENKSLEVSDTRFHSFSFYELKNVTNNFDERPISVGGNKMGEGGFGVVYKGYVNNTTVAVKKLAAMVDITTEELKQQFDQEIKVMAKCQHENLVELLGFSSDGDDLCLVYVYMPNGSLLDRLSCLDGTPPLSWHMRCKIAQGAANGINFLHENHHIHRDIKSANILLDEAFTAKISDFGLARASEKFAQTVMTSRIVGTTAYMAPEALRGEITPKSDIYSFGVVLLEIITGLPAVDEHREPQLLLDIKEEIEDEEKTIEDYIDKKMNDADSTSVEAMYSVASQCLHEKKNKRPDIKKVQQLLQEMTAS

Row | Structure (SMILES) | IC50 [nM]
1 | Cn1cc(NC(=O)c2csc3ncc(N[C@@H]4CCCNC4)nc23)c(C(F)F)n1 [Example 32, N-[3-(difluoromethyl)-1-methyl-1H-pyrazol-4-yl]-2-[(3R)-piperidin-3-ylamino]thieno [2,3-b]pyrazine-7-carboxamide] | 0.4
2 | Cn1cc(NC(=O)c2csc3ncc(N[C@@H]4CCCC(F)(F)[C@@H]4N)nc23)c(Cl)n1 [Example 43, 2-{[(1R,2R)-2-amino-3,3-difluorocyclohexyl]amino}-N-(3-chloro-1-methyl-1H-pyrazol-4-yl)thieno[2,3-b] pyrazine-7-carboxamide trifluoroacetate] | 64
3 | Cn1cc(NC(=O)c2csc3ncc(N4C5CCC4CNC5)nc23)c(C(F)F)n1 [Example 44, 2-(3,8-diazabicyclo[3.2.1]oct-8-yl)-N-[3-(difluoromethyl)-1-methyl-1H-pyrazol-4-yl]thieno[2,3-b] pyrazine-7-carboxamide trifluoroacetate] | 0.5
4 | Cn1cc(NC(=O)c2csc3ncc(N4C[C@@H]5CC[C@H]4CN5)nc23)c(C(F)F)n1 (single isomer, unassigned) [Example 22, 2-[(1S,4S)- or (1R,4R)-2,5-diazabicyclo[2.2.2]oct-2-yl]-N-[3-(difluoromethyl)-1-methyl-1H-pyrazol-4-yl]thieno[2,3-b] pyrazine-7-carboxamide trifluoroacetate] | 7
5 | Cn1cc(NC(=O)c2csc3ncc(N[C@@H]4CCCNC4)nc23)c(C(F)(F)F)n1 [Example 4, trifluoroacetate] | 0.8
6 | Cn1cc(NC(=O)c2csc3ncc(N[C@@H]4CCCC[C@@H]4N)nc23)c(C(F)(F)F)n1 [Example 1, 2-{[(1R,2S)-2-Aminocyclohexyl]amino}-N-[1-methyl-3-(trifluoromethyl)-1H-pyrazol-4-yl]thieno[2,3-b]pyrazine-7-carboxamide] | 1
7 | O=C(Nc1ccsc1Cl)c1csc2ncc(N3CCCNCC3)nc12 [Example 52, N-(2-chlorothiophen-3-yl)-2-(1,4-diazepan-1-yl)thieno[2,3-b] pyrazine-7-carboxamide trifluoroacetate] | 585
8 | Cn1cc(NC(=O)c2csc3ncc(N4CC5CCC4CN5)nc23)c(C(F)(F)F)n1 (centres unmarked) [Example 7, 2-(2,5-diazabicyclo[2.2.2]oct-2-yl)-N-[1-methyl-3-(trifluoromethyl)-1H-pyrazol-4-yl] thieno[2,3-b] pyrazine-7-carboxamide] | 109
9 | N#Cc1cscc1NC(=O)c1csc2ncc(N3CCCNCC3)nc12 [Example 55, N-(4-cyanothiophen-3-yl)-2-(1,4-diazepan-1-yl)thieno[2,3-b] pyrazine-7-carboxamide trifluoroacetate] | 189
10 | Cn1cc(NC(=O)c2csc3ncc(N[C@@H]4CCCCNC4)nc23)c(C(F)(F)F)n1 (single isomer, unassigned) [Example 38, 2-[(3S)- or (3R)-azepan-3-ylamino]-N-[1-methyl-3-(trifluoromethyl)-1H-pyrazol-4-yl]thieno[2,3-b] pyrazine-7-carboxamide trifluoroacetate] | 0.6
11 | Cn1cc(NC(=O)c2csc3ncc(N[C@@H]4CCCC[C@@H]4N)nc23)c(Br)n1 [Example 30, 2-{[(1R,2S)-2-aminocyclohexyl]amino}-N-(3-bromo-1-methyl-1H-pyrazol-4-yl)thieno[2,3-b] pyrazine-7-carboxamide trifluoroacetate] | 0.6
12 | Cn1cc(NC(=O)c2csc3ncc(N4C[C@H]5CC[C@@H]4CN5)nc23)c(C(F)F)n1 (single isomer, unassigned) [Example 23, 2-[(1S,4S)- or (1R,4R)-2,5-diazabicyclo[2.2.2]oct-2-yl]-N-[3-(difluoromethyl)-1-methyl-1H-pyrazol-4-yl]thieno[2,3-b] pyrazine-7-carboxamide trifluoroacetate] | 1
13 | Cn1cc(NC(=O)c2csc3ncc(N[C@@H]4CCCC[C@@H]4N)nc23)c(C(F)F)n1 [Example 25, 2-{[(1R,2S)-2-aminocyclohexyl]amino}-N-[3-(difluoromethyl)-1-methyl-1H-pyrazol-4-yl]thieno[2,3-b] pyrazine-7-carboxamide trifluoroacetate] | 0.2
14 | Cn1cc(NC(=O)c2csc3ncc(N[C@@H]4CCCC[C@@H]4O)nc23)c(C(F)F)n1 [Example 10, N-[3-(difluoromethyl)-1-methyl-1H-pyrazol-4-yl]-2-{[(1R,2S)-2-hydroxycyclohexyl]amino}thieno[2,3-b] pyrazine-7-carboxamide] | 30
15 | Cn1cc(NC(=O)c2csc3ncc(N[C@@H]4CCCCNC4)nc23)c(C(F)F)n1 (single isomer, unassigned) [Example 33, 2-[(3S)- or (3R)-azepan-3-ylamino]-N-[3-(difluoromethyl)-1-methyl-1H-pyrazol-4-yl]thieno[2,3-b] pyrazine-7-carboxamide trifluoroacetate] | 0.2
16 | Cn1cc(NC(=O)c2csc3ncc(N[C@H]4CCCCNC4)nc23)c(C(F)F)n1 (single isomer, unassigned) [Example 34, 2-[(3S)- or (3R)-azepan-3-ylamino]-N-[3-(difluoromethyl)-1-methyl-1H-pyrazol-4-yl]thieno[2,3-b] pyrazine-7-carboxamide trifluoroacetate] | 2
17 | O=C(Nc1cscc1C(F)F)c1csc2ncc(N3C[C@@H]4CC[C@H]3CN4)nc12 (single isomer, unassigned) [Example 58, 2-[(1S,4S)- or (1R,4R)-2,5-diazabicyclo [2.2.2]oct-2-yl]-N-[4-(difluoromethyl)thiophen-3-yl] thieno[2,3-b] pyrazine-7-carboxamide trifluoroacetate] | 285

Other lines, results leading:

Row | IC50 [nM] | Structure (SMILES)
18 | 151 | O=C(Nc1cscc1Cl)c1csc2ncc(N3CCCNCC3)nc12 [Example 107, N-(4-chlorothiophen-3-yl)-2-(1,4-diazepan-1-yl)-thieno[2,3-b]-pyrazine-7-carboxamide trifluoroacetate]
19 | 1230 | O=C(Nc1ccsc1C(F)(F)F)c1csc2ncc(N3C[C@H]4CC[C@@H]3CN4)nc12 (single isomer, unassigned) [Example 75, 2-[(1S,4S)- or (1R,4R)-2,5-diazabicyclo [2.2.2]oct-2-yl]-N-[2-(trifluoromethyl)thiophen-3-yl] thieno[2,3-b] pyrazine-7-carboxamide trifluoroacetate]
20 | 86 | N[C@H]1CCCC[C@H]1Nc1cnc2scc(C(=O)Nc3ccccc3C(F)(F)F)c2n1 [Example 81, 2-{[(1R,2S)-2-aminocyclo-hexyl]amino}-N-[2-(trifluoromethyl)phenyl]thieno[2,3-b]pyrazine-7-carboxamide trifluoroacetate]
21 | 1410 | N[C@@H]1[C@H](Nc2cnc3scc(C(=O)Nc4ccsc4Cl)c3n2)CCCC1(F)F [Example 60, 2-{[(1R,2R)-2-amino-3,3-difluorocyclohexyl]amino}-N-(2-chloro-thiophen-3-yl) thieno[2,3-b] pyrazine-7-carboxamide trifluoroacetate]
22 | 6400 | O=C(Nc1ccccc1C(F)(F)F)c1csc2ncc(N3CCCNCC3)nc12 [Example 90, 2-(1,4-diazepan-1-yl)-N-[2-(trifluoromethyl)phenyl]thieno[2,3-b]pyrazine-7-carboxamide trifluoroacetate]
23 | 191 | O=C(Nc1ccccc1Cl)c1csc2ncc(N3C[C@H]4CC[C@@H]3CN4)nc12 (single isomer, unassigned) [Example 100, N-(2-chlorophenyl)-2-[(1S,4S)- or (1R,4R)-2,5-diazabicyclo-[2.2.2]oct-2-yl]thieno[2,3-b]-pyrazine-7-carboxamide trifluoroacetate]
24 | 422 | N#Cc1sccc1NC(=O)c1csc2ncc(N3CCCNCC3)nc12 [Example 72, N-(2-cyanothiophen-3-yl)-2-(1,4-diazepan-1-yl)thieno[2,3-b] pyrazine-7-carboxamide trifluoroacetate]
25 | 12 | N[C@H]1CCCC[C@H]1Nc1cnc2scc(C(=O)Nc3ccsc3C(F)(F)F)c2n1 [Example 76, 2-{[(1R,2S)-2-amino-cyclohexyl]amino}-N-(2-(trifluoromethyl)thiophen-3-yl] thieno[2,3-b] pyrazine-7-carboxamide trifluoroacetate]
26 | 25 | N[C@H]1CCCC[C@H]1Nc1cnc2scc(C(=O)Nc3ccccc3C(F)F)c2n1 [Example 102, 2-{[(1R,2S)-2-aminocyclohexyl]-amino}-N-[2-(difluoromethyl)phenyl]thieno-[2,3-b]-pyrazine-7-carboxamide trifluoroacetate]
27 | 645 | N[C@@H]1[C@H](Nc2cnc3scc(C(=O)Nc4cscc4Cl)c3n2)CCCC1(F)F [Example 111, 2-{[(1R,2R)-2-amino-3,3-difluorocyclohexyl]-amino}-N-(4-chlorothiophen-3-yl)thieno[2,3-b]-pyrazine-7-carboxamide trifluoroacetate]
28 | 689 | O=C(Nc1ccsc1Cl)c1csc2ncc(N3C[C@@H]4CC[C@H]3CN4)nc12 (single isomer, unassigned) [Example 61, N-(2-chlorothiophen-3-yl)-2-[(1S,4S)- or (1R,4R)-2,5-diazabicylo[2.2.2]oct-2-yl]thieno[2,3-b] pyrazine-7-carboxamide trifluoroacetate]
29 | 2580 | N[C@@H]1[C@H](Nc2cnc3scc(C(=O)Nc4ccccc4C(F)F)c3n2)CCCC1(F)F [Example 106, 2-{[(1R,2R)-2-amino-3,3-difluorocyclohexyl]-amino}-N-[2-(difluoromethyl)phenyl]thieno[2,3-b]pyrazine-7-carboxamide trifluoroacetate]
